≈ marks a conversion by molar mass, not a printed value. Calls of active or inactive are those of the source. Non-standard residues stand in square brackets, D forms with d. Residues, ends and D or L forms follow the SMILES beside them. ξ: configuration not given here. Pro(3ξ,4ξ-(CH2)4) = O=C(O)[C@H]1NCC2CCCCC21; Oic = O=C(O)[C@@H]1C[C@@H]2CCCC[C@@H]2N1; Tic = O=C(O)[C@@H]1Cc2ccccc2CN1; βAla = NCCC(=O)O

A word on the MIC: it is the smallest concentration in the dilution series that meets the test's criterion for growth inhibition. A high value points to a need for much substance.

In one data set the test system is Bacillus subtilis. The data set can be described thus: Antibacterial activity against Bacillus subtilis ATCC 43223. It counts as functional.
The test system of a further data set is Salmonella typhimurium. The experiment in a line: Antibacterial activity against Salmonella Typhimurium ATCC 13311. The data set is classed as functional, Salmonella enterica subsp. enterica serovar Typhimurium. The note with it: for MIC: Salmonella enterica; for Activity: Salmonella enterica subsp. enterica serovar Typhimurium.
The next data set deals with Mycobacterium. The experiment in a line: Antibacterial activity against Mycobacterium ranae ATCC 110. It counts as functional.
The subject of a further data set is Staphylococcus aureus. The experiment in a line: Antibacterial activity against methicillin/gentamicin/tetracycline resistant Staphylococcus aureus ATCC 33592. The data set is classed as functional.
Data set [1] in a line: Toxicity to mouse RBC assessed as hemolytic activity at 100 uM. The data set is classed as cell-based, Erythrocyte. The note with it: red blood cells, read-out: Activity.

`CC(=O)NCC(=O)N[C@@H](Cc1ccccc1)C(=O)N1CC2CCCCC2[C@H]1C(=O)NCC(=O)N[C@@H](CCCCN)C(=O)N1CC2CCCCC2[C@H]1C(=O)NCC(=O)N[C@@H](Cc1ccccc1)C(=O)N1CC2CCCCC2[C@H]1C(=O)NCC(=O)N[C@@H](CCCCN)C(=O)N[C@@H](CCCCN)C(=O)N[C@@H](CCCCN)C(=O)N[C@@H](CCCCN)C(=O)N[C@@H](CCCCN)C(N)=O` (stereo partly specified) (Ac-GF[Pro(3ξ,4ξ-(CH2)4)]GK[Pro(3ξ,4ξ-(CH2)4)]GF[Pro(3ξ,4ξ-(CH2)4)]GKKKKK-NH2): the MIC against Bacillus subtilis came out at 3 µM (≈ 5.41 µg/mL); in the data set on Salmonella typhimurium, 100 µM (≈ 180 µg/mL); in the data set with Mycobacterium, 100 µM (≈ 180 µg/mL).
`CC(=O)NCC(=O)N[C@@H](Cc1ccccc1)C(=O)N[C@@H](Cc1ccccc1)C(=O)N1CC2CCCCC2[C@H]1C(=O)NCC(=O)N[C@@H](CCCCN)C(=O)N[C@@H](Cc1ccccc1)C(=O)N1CC2CCCCC2[C@H]1C(=O)NCC(=O)N[C@@H](Cc1ccccc1)C(=O)N[C@@H](Cc1ccccc1)C(=O)N1CC2CCCCC2[C@H]1C(=O)NCC(=O)N[C@@H](CCCCN)C(=O)N[C@@H](Cc1ccccc1)C(=O)N[C@@H](CCCCN)C(=O)N[C@@H](CCCCN)C(=O)N[C@@H](CCCCN)C(=O)N[C@@H](CCCCN)C(N)=O` (stereo partly specified) (Ac-GFF[Pro(3ξ,4ξ-(CH2)4)]GKF[Pro(3ξ,4ξ-(CH2)4)]GFF[Pro(3ξ,4ξ-(CH2)4)]GKFKKKK-NH2): the MIC in the data set with Bacillus subtilis is 3 µM (≈ 7.18 µg/mL); with Salmonella typhimurium it was 10 µM (≈ 23.9 µg/mL); in the data set on Mycobacterium, 10 µM (≈ 23.9 µg/mL); against Staphylococcus aureus, 10 µM (≈ 23.9 µg/mL).
`CC(C)C[C@H](NC(=O)CNC(=O)[C@H](CCCCN)NC(=O)CN)C(=O)N1Cc2ccccc2C[C@H]1C(=O)N1CC2CCCCC2[C@H]1C(=O)N[C@@H](Cc1ccccc1)C(=O)N[C@@H](CCCCN)C(=O)N1Cc2ccccc2C[C@H]1C(=O)N1CC2CCCCC2[C@H]1C(=O)N[C@@H](CCCCN)C(=O)N[C@@H](Cc1ccccc1)C(=O)N1Cc2ccccc2C[C@H]1C(=O)N1CC2CCCCC2[C@H]1C(=O)N[C@@H](Cc1ccccc1)C(=O)N[C@@H](CCCCN)C(=O)N1Cc2ccccc2C[C@H]1C(=O)N1CC2CCCCC2[C@H]1C(=O)N[C@@H](CCCCN)C(=O)N[C@@H](Cc1ccccc1)C(=O)N1Cc2ccccc2C[C@H]1C(=O)N1CC2CCCCC2[C@H]1C(=O)N[C@@H](Cc1ccccc1)C(=O)N[C@@H](CCCCN)C(=O)N1Cc2ccccc2C[C@H]1C(=O)N1CC2CCCCC2[C@H]1C(=O)N[C@@H](Cc1ccccc1)C(=O)N[C@@H](CCCCN)C(=O)N[C@@H](CCCNC(=N)N)C(N)=O` (stereo partly specified) (H-GKGL[Tic][Pro(3ξ,4ξ-(CH2)4)]FK[Tic][Pro(3ξ,4ξ-(CH2)4)]KF[Tic][Pro(3ξ,4ξ-(CH2)4)]FK[Tic][Pro(3ξ,4ξ-(CH2)4)]KF[Tic][Pro(3ξ,4ξ-(CH2)4)]FK[Tic][Pro(3ξ,4ξ-(CH2)4)]FKR-NH2) [listing 1 of 2 here]: the MIC in the data set with Bacillus subtilis was 3 µM (≈ 12.1 µg/mL); with Salmonella typhimurium, 100 µM (≈ 404 µg/mL); against Staphylococcus aureus, 30 µM (≈ 121 µg/mL).
Turning to `CSCC[C@H](NC(=O)[C@H](CC(C)C)NC(=O)[C@H](CCC(=O)O)NC(=O)[C@@H]1C2CCCCC2CN1C(=O)[C@@H]1Cc2ccccc2CN1C(=O)[C@H](CCCCN)NC(=O)CNC(=O)[C@@H]1C2CCCCC2CN1C(=O)[C@@H]1Cc2ccccc2CN1C(=O)[C@H](CC(C)C)NC(=O)CNC(=O)[C@@H]1C2CCCCC2CN1C(=O)[C@@H]1Cc2ccccc2CN1C(=O)[C@H](CCCCN)NC(=O)CNC(=O)[C@@H]1C2CCCCC2CN1C(=O)[C@@H]1Cc2ccccc2CN1C(=O)[C@H](CC(C)C)NC(=O)CNC(=O)[C@@H]1C2CCCCC2CN1C(=O)[C@@H]1Cc2ccccc2CN1C(=O)[C@H](CO)NC(=O)[C@H](CC(N)=O)NC(=O)[C@H](CCSC)NC(=O)[C@H](CC(C)C)NC(=O)[C@@H](N)CCC(=O)O)C(=O)N[C@@H](CC(N)=O)C(=O)N[C@@H](CO)C(N)=O` (stereo partly specified) (H-ELMNS[Tic][Pro(3ξ,4ξ-(CH2)4)]GL[Tic][Pro(3ξ,4ξ-(CH2)4)]GK[Tic][Pro(3ξ,4ξ-(CH2)4)]GL[Tic][Pro(3ξ,4ξ-(CH2)4)]GK[Tic][Pro(3ξ,4ξ-(CH2)4)]ELMNS-NH2), the hemolysis at 100 µM in data set [1] was found to be 3%. In addition, the outcome in the data set with Salmonella typhimurium and in the data set on Staphylococcus aureus was inactive.
Take `CSCC[C@H](NC(=O)[C@H](CC(C)C)NC(=O)[C@H](CCC(=O)O)NC(=O)[C@@H]1C2CCCCC2CN1C(=O)[C@@H]1Cc2ccccc2CN1C(=O)[C@H](CCCCN)NC(=O)CNC(=O)[C@H](CC(C)C)NC(=O)[C@H](CCCCN)NC(=O)CNC(=O)[C@@H]1C2CCCCC2CN1C(=O)[C@@H]1Cc2ccccc2CN1C(=O)[C@H](CO)NC(=O)[C@H](CC(N)=O)NC(=O)[C@H](CCSC)NC(=O)[C@H](CC(C)C)NC(=O)[C@@H](N)CCC(=O)O)C(=O)N[C@@H](CO)C(N)=O` (stereo partly specified) (H-ELMNS[Tic][Pro(3ξ,4ξ-(CH2)4)]GKLGK[Tic][Pro(3ξ,4ξ-(CH2)4)]ELMS-NH2): the hemolysis at 100 µM in data set [1] stood at 23%. Also, the outcome in the data set on Salmonella typhimurium and in the data set with Staphylococcus aureus was inactive.
`CC(C)C[C@H](NC(=O)CNC(=O)[C@H](CCCCN)NC(=O)CN)C(=O)N1Cc2ccccc2C[C@H]1C(=O)N1CC2CCCCC2[C@H]1C(=O)NCC(=O)N[C@@H](CC(C)C)C(=O)N1Cc2ccccc2C[C@H]1C(=O)N1CC2CCCCC2[C@H]1C(=O)NCC(=O)N[C@@H](CCCCN)C(=O)N1Cc2ccccc2C[C@H]1C(=O)N1CC2CCCCC2[C@H]1C(=O)NCC(=O)N[C@@H](CC(C)C)C(=O)N1Cc2ccccc2C[C@H]1C(=O)N1CC2CCCCC2[C@H]1C(=O)NCC(=O)N[C@@H](CCCCN)C(=O)N1Cc2ccccc2C[C@H]1C(=O)N1CC2CCCCC2[C@H]1C(=O)NCC(=O)N[C@@H](CC(C)C)C(=O)N1Cc2ccccc2C[C@H]1C(=O)N1CC2CCCCC2[C@H]1C(=O)NCC(=O)N[C@@H](CCCCN)C(=O)N[C@@H](CCCNC(=N)N)C(N)=O` (stereo partly specified) (H-GKGL[Tic][Pro(3ξ,4ξ-(CH2)4)]GL[Tic][Pro(3ξ,4ξ-(CH2)4)]GK[Tic][Pro(3ξ,4ξ-(CH2)4)]GL[Tic][Pro(3ξ,4ξ-(CH2)4)]GK[Tic][Pro(3ξ,4ξ-(CH2)4)]GL[Tic][Pro(3ξ,4ξ-(CH2)4)]GKR-NH2): in data set [1], the hemolysis at 100 µM was found to be 100%. Further, in the data set with Salmonella typhimurium, the result was inactive. The compound also returned an MIC against Staphylococcus aureus of 100 µM (≈ 346 µg/mL).
Consider `CC(C)C[C@H](NC(=O)CNC(=O)[C@H](CCCCN)NC(=O)CN)C(=O)N1Cc2ccccc2C[C@H]1C(=O)N1[C@H](C(=O)NCC(=O)N[C@@H](CCCNC(=N)N)C(=O)N2Cc3ccccc3C[C@H]2C(=O)N2[C@H](C(=O)NCC(=O)N[C@@H](Cc3ccccc3)C(=O)N3Cc4ccccc4C[C@H]3C(=O)N3[C@H](C(=O)NCC(=O)N[C@@H](CCCNC(=N)N)C(=O)N4Cc5ccccc5C[C@H]4C(=O)N4[C@H](C(=O)NCC(=O)N[C@@H](Cc5ccccc5)C(=O)N5Cc6ccccc6C[C@H]5C(=O)N5[C@H](C(=O)NCC(=O)N[C@@H](CCCNC(=N)N)C(=O)N6Cc7ccccc7C[C@H]6C(=O)N6[C@H](C(=O)NCC(=O)N[C@@H](CCCCN)C(=O)N[C@@H](CCCNC(=N)N)C(N)=O)C[C@@H]7CCCC[C@@H]76)C[C@@H]6CCCC[C@@H]65)C[C@@H]5CCCC[C@@H]54)C[C@@H]4CCCC[C@@H]43)C[C@@H]3CCCC[C@@H]32)C[C@@H]2CCCC[C@@H]21` (H-GKGL[Tic][Oic]GR[Tic][Oic]GF[Tic][Oic]GR[Tic][Oic]GF[Tic][Oic]GR[Tic][Oic]GKR-NH2), for which the MIC against Bacillus subtilis turned out to be 1 µM (≈ 3.62 µg/mL); with Salmonella typhimurium it was 100 µM (≈ 362 µg/mL).
As to `CC(=O)NCC(=O)N[C@@H](Cc1ccccc1)C(=O)NCC(=O)N1CC2CCCCC2[C@H]1C(=O)NCC(=O)N[C@@H](CCCCN)C(=O)NCC(=O)N1CC2CCCCC2[C@H]1C(=O)NCC(=O)N[C@@H](Cc1ccccc1)C(=O)NCC(=O)N1CC2CCCCC2[C@H]1C(=O)NCC(=O)N[C@@H](CCCCN)C(=O)NCC(=O)N[C@@H](CCCCN)C(=O)N[C@@H](CCCCN)C(=O)N[C@@H](CCCCN)C(=O)N[C@@H](CCCCN)C(N)=O` (stereo partly specified) (Ac-GFG[Pro(3ξ,4ξ-(CH2)4)]GKG[Pro(3ξ,4ξ-(CH2)4)]GFG[Pro(3ξ,4ξ-(CH2)4)]GKGKKKK-NH2), the MIC in the data set with Bacillus subtilis was 30 µM (≈ 61 µg/mL); against Mycobacterium, 100 µM (≈ 203 µg/mL); with Staphylococcus aureus it was 3 µM (≈ 6.1 µg/mL).
As for `CSCC[C@H](NC(=O)[C@H](CC(C)C)NC(=O)[C@H](CCC(=O)O)NC(=O)[C@@H]1C[C@@H]2CCCC[C@@H]2N1C(=O)[C@@H]1Cc2ccccc2CN1C(=O)[C@H](Cc1ccccc1)NC(=O)CCNC(=O)[C@@H]1C[C@@H]2CCCC[C@@H]2N1C(=O)[C@@H]1Cc2ccccc2CN1C(=O)[C@H](CCCCN)NC(=O)CCNC(=O)[C@@H]1C[C@@H]2CCCC[C@@H]2N1C(=O)[C@@H]1Cc2ccccc2CN1C(=O)[C@H](Cc1ccccc1)NC(=O)CCNC(=O)[C@@H]1C[C@@H]2CCCC[C@@H]2N1C(=O)[C@@H]1Cc2ccccc2CN1C(=O)[C@H](CCCCN)NC(=O)CCNC(=O)[C@@H]1C[C@@H]2CCCC[C@@H]2N1C(=O)[C@@H]1Cc2ccccc2CN1C(=O)[C@H](CC(C)C)NC(=O)CNC(=O)[C@H](CCCCN)NC(=O)CN)C(=O)N[C@@H](CC(N)=O)C(=O)N[C@@H](CO)C(N)=O` (H-GKGL[Tic][Oic][βAla]K[Tic][Oic][βAla]F[Tic][Oic][βAla]K[Tic][Oic][βAla]F[Tic][Oic]ELMNS-NH2), the hemolysis at 100 µM in data set [1] is 55%.
Consider `CC(C)C[C@H](NC(=O)CNC(=O)[C@H](CCCCN)NC(=O)CN)C(=O)N1Cc2ccccc2C[C@H]1C(=O)N1CC2CCCCC2[C@H]1C(=O)N[C@@H](Cc1ccccc1)C(=O)N[C@@H](CCCCN)C(=O)N1Cc2ccccc2C[C@H]1C(=O)N1CC2CCCCC2[C@H]1C(=O)N[C@@H](CCCCN)C(=O)N[C@@H](Cc1ccccc1)C(=O)N1Cc2ccccc2C[C@H]1C(=O)N1CC2CCCCC2[C@H]1C(=O)N[C@@H](Cc1ccccc1)C(=O)N[C@@H](CCCCN)C(=O)N1Cc2ccccc2C[C@H]1C(=O)N1CC2CCCCC2[C@H]1C(=O)N[C@@H](CCCCN)C(=O)N[C@@H](Cc1ccccc1)C(=O)N1Cc2ccccc2C[C@H]1C(=O)N1CC2CCCCC2[C@H]1C(=O)N[C@@H](Cc1ccccc1)C(=O)N[C@@H](CCCCN)C(=O)N1Cc2ccccc2C[C@H]1C(=O)N1CC2CCCCC2[C@H]1C(=O)N[C@@H](Cc1ccccc1)C(=O)N[C@@H](CCCCN)C(=O)N[C@@H](CCCNC(=N)N)C(N)=O` (stereo partly specified) (H-GKGL[Tic][Pro(3ξ,4ξ-(CH2)4)]FK[Tic][Pro(3ξ,4ξ-(CH2)4)]KF[Tic][Pro(3ξ,4ξ-(CH2)4)]FK[Tic][Pro(3ξ,4ξ-(CH2)4)]KF[Tic][Pro(3ξ,4ξ-(CH2)4)]FK[Tic][Pro(3ξ,4ξ-(CH2)4)]FKR-NH2) [listing 2 of 2 here], for which, in data set [1], the hemolysis at 100 µM amounted to 100%.
